The supplement of paper PMC11061612

Columns and labels:
Experiment in all cases: Bliss excess, mean over the matrix (fraction); higher = more synergy
[1] = test system: LU-65 (Non-Small Cell Lung Carcinoma)
Procedure, shortened: (§1)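 Cell lines grown in DMEM/F12 or RPMI with 10% FBS were plated in 1536-well plates and held 24 hours at 37°C, 5% CO2 before 72 hours of exposure to two-drug dose matrices, with DMSO typically at 0.2%. CellTiter-Glo 2.0 luminescence gave viability, which was converted to inhibition. Vehicle wells were set to 0 and blank wells to 1. Combination Emax is the second-highest inhibition in the matrix, and Bliss excess is the observed combination effect minus the expected EA + EB − EA·EB, where EA and EB are the single-agent effects.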

[2] = test system: D-263MG (Glioblastoma)
Procedure, shortened: as §1

[3] = test system: AMO-1 (Plasma Cell Myeloma)
Procedure, shortened: as §1

[4] = test system: MLMA (Other Blood Carcinomas)
Procedure, shortened: as §1

[5] = test system: Caov-4 (Ovarian Carcinoma)
Procedure, shortened: as §1

[6] = test system: ACHN (Kidney Carcinoma)
Procedure, shortened: as §1

[7] = test system: Hs-766T (Pancreatic Carcinoma)
Procedure, shortened: as §1

[8] = test system: PANC-04-03 (Pancreatic Carcinoma)
Procedure, shortened: as §1

[9] = test system: YH-13 (Glioblastoma)
Procedure, shortened: as §1

[10] = test system: EoL-1-cell (Acute Myeloid Leukemia)
Procedure, shortened: as §1

SMILES	Bliss excess [1]	Bliss excess [2]	Bliss excess [3]	Bliss excess [4]	Bliss excess [5]	Bliss excess [6]	Bliss excess [7]	Bliss excess [8]	Bliss excess [9]	Bliss excess [10]
Cc1c2c(nn1C)CSCc1cc(n(C)n1)CSc1cc(c3ccccc3c1)OCCCc1c(C(=O)O)n(C)c3c-2c(Cl)ccc13 [AZD5991] + CS(=O)(=O)CCNCc1ccc(-c2ccc3ncnc(Nc4ccc(OCc5cccc(F)c5)c(Cl)c4)c3c2)o1 [Lapatinib] (first compound max 1 µM, 7x7, partner max 10 µM)	0.0232	-0.0735	0.0149	-0.0474	0.0835	0.0028	-0.0526	-0.0275		
O=C(c1cc(Cc2n[nH]c(=O)c3ccccc23)ccc1F)N1CCN(C(=O)C2CC2)CC1 [Olaparib] + CC1(C)CCC(CN2CCN(c3ccc(C(=O)NS(=O)(=O)c4ccc(NCC5CCOCC5)c([N+](=O)[O-])c4)c(Oc4cnc5[nH]ccc5c4)c3)CC2)=C(c2ccc(Cl)cc2)C1 [Venetoclax] (first compound max 10 µM, 7x7, partner max 1 µM)	-0.0323	-0.0659	-0.0074	-0.0299	-0.032	-0.0214	-0.0885	-0.0318	-0.0207	0.0698
O=C(c1cc(Cc2n[nH]c(=O)c3ccccc23)ccc1F)N1CCN(C(=O)C2CC2)CC1 [Olaparib] + COc1nnc2ccc(N3CCC(c4ccc(OCCN5CCN(C)C(=O)[C@H]5C)cc4)CC3)nn12 [AZD5153] (first compound max 10 µM, 7x7, partner max 1 µM)	-0.0601	-0.057	-0.0334	-0.0697	-0.0634	-0.0367	-0.0857	-0.0698	-0.0114	-0.0384
C[C@@H](Nc1cc(F)cc(F)c1)c1cc(C(=O)N(C)C)cc2c(=O)cc(N3CCOCC3)oc12 [AZD8186] + CC(=O)c1c(C)c2cnc(Nc3ccc(N4CCNCC4)cn3)nc2n(C2CCCC2)c1=O [Palbociclib] (first compound max 10 µM, 7x7, partner max 10 µM)	-0.0378	0.0181	0.126	0.0443	0.0078	0.0335	0.006	0.0107	0.0183	0.0996
C[C@@H](Oc1cc(-c2cnn(C3CCNCC3)c2)cnc1N)c1c(Cl)ccc(F)c1Cl [Crizotinib] + Cn1cnc2c(F)c(Nc3ccc(Br)cc3Cl)c(C(=O)NOCCO)cc21 [Selumetinib] (first compound max 10 µM, 7x7, partner max 10 µM)	0.0003	-0.0866	0.0122	-0.116	-0.025	0.0277	-0.0074	-0.0194	-0.0111	0.0352
CN(CCO)CC[C@H](CSc1ccccc1)Nc1ccc(S(=O)(=O)NC(=O)c2ccc(N3CCC([C@@H](O)c4ccccc4-c4ccc(Cl)cc4)CC3)cc2)cc1S(=O)(=O)C(F)(F)F [AZD4320] + CS(=O)(=O)CCNCc1ccc(-c2ccc3ncnc(Nc4ccc(OCc5cccc(F)c5)c(Cl)c4)c3c2)o1 [Lapatinib] (first compound max 1 µM, 7x7, partner max 10 µM)	-0.0043	-0.0288	0.0695	0.014	-0.0144	-0.011	-0.0586	-0.0143	0.0183	0.05
Cc1nc(-c2cn3c(n2)-c2ccc(-c4cnn(C(C)(C)C(N)=O)c4)cc2OCC3)n(C(C)C)n1 [Taselisib] + O=C(Nc1ccc2[nH]nc(-c3ccncc3)c2c1)[C@@H]1CCN(CC(=O)N2CCN(c3ccc(-c4ncccn4)cc3)CC2)C1 [SCH772984] (first compound max 10 µM, 7x7, partner max 5 µM)	0.214	0.0047	0.133	0.0548	0.0269	0.0219	-0.0386	0.0934	-0.0586	0.191
C=CCn1c(=O)c2cnc(Nc3ccc(N4CCN(C)CC4)cc3)nc2n1-c1cccc(C(C)(C)O)n1 [AZD1775] + CCc1c2c(nc3ccc(O)cc13)-c1cc3c(c(=O)n1C2)COC(=O)[C@]3(O)CC [SN-38] (first compound max 1 µM, partner max 0.3 µM)	-0.0127	0.0132	-0.052	-0.0639	-0.0557	-0.0634	0.0017	-0.0594	-0.0262	0.0324
